Experimental data taken from PubChem BioAssay AID463074 (Broad Institute, 2010).
Active and inactive are the calls of the source.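 Rule for the calls: active = AC50 no more than tenfold above the top dose tested, or full inhibition at every dose with a flat fit (cut at about 19 µM in these data); inconclusive = flat curve fit with inhibition between 30% and 70%, or poor fit; inactive = AC50 more than tenfold above the top dose tested.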

Tested on: HMLE_sh_eGFP viability, CellTiter-Glo luminescence, 72 h
Assay: viability loss of HMLE_sh_eGFP cells – cell-based, luminescence, counter-screen for HMLE_sh_ECad selective toxicity project, dose response (AID 463074);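 note: counterscreen control line to flag general toxicity for the HMLE_sh_ECad screen; potency for loss of viability as luminescence drops below DMSO wells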

Compound	AC50
C[C@H](CO)N1C[C@H](C)[C@@H](CN(C)S(=O)(=O)c2ccc(F)cc2)Oc2ccc(NC(=O)Nc3ccc(C(F)(F)F)cc3)cc2C1=O	17.1 µM
C/C(=N\Nc1ccccc1)c1c(O)n(Cc2ccccc2)c(=O)[nH]c1=O	1.9 µM
CCNC(=S)N/N=C/c1cn(Cc2ccc(F)cc2)c2ccccc12	10.9 µM
Cc1ccc(C(NC(=O)C(C)C)c2cc([N+](=O)[O-])c3cccnc3c2O)cc1 (stereo not given)	3.16 µM
CCC(C)Sc1cccc(-c2nc3ccc(C)cn3c2NCc2ccccc2)c1 (stereo not given)	2.88 µM
Cc1ccc(S(=O)(=O)Nc2ccc(-c3csc(-c4ccccc4)n3)cc2)cc1	6.85 µM
Cc1cccc(NC(=S)NCC(C)CSc2ccc(Cl)cc2)c1 (stereo not given)	7.05 µM
CC(C)Cc1nc2oc3c(Cl)ncnc3c2c2c1CCCC2	4.82 µM
CCC1CSC(Nc2ccc(C(=O)/C=C/c3ccc(Br)cc3)cc2)=N1 (stereo not given)	5.68 µM
O=C(NC1CONC1=O)OCC(Cl)(Cl)Cl (stereo not given)	> 19.5 µM (inactive)
CCn1cc(C(=O)N[C@H](C)c2ccccc2)c(=O)c2cc(F)c(N3CCN(C)CC3)cc21	3.5 µM
O=C(Oc1ccc(Br)cc1C(=O)/C=C/c1ccccc1F)c1ccco1	4.19 µM
CCc1cc2cc(C)cc(C)c2nc1SCC(=O)N1CCN(C(=O)c2ccco2)CC1	13.4 µM
CC1(C)Cc2ccccc2C(CSc2ccccc2C(=O)O)=N1	17.2 µM
O=C(/C=C/c1ccc2c(c1)OCO2)Nc1nc(-c2ccccc2)cs1	0.781 µM
CC(C)(C)NC(=O)Cn1nnc(-c2ccc(OCc3c(F)cccc3Cl)cc2)n1	1.79 µM
Cc1ccc(OCC(O)Cn2c3ccccc3c3ccccc32)cc1 (stereo not given)	6.78 µM
O=C1/C(=C\c2cccc(O)c2O)SC(=S)N1Cc1ccccc1	4.85 µM
c1ccc(-c2nnc3sc(CN4CCc5ccccc54)cn23)cc1	3.51 µM
CCCCNc1c(-c2ccc(-c3cccc(Cl)c3)cc2)nc2ccccn12	3.87 µM
COc1ccccc1/C=C1\SC(=O)N(CCC(=O)NCCCn2ccnc2)C1=O	19.5 µM
Cc1cccc(C)c1OCc1cc(C(=O)N2CC3C[C@@H]4CC2C[C@H](C3)C4)no1	2.69 µM
COc1cc2cnc(-c3ccccc3)c(-c3cccc(C(F)(F)F)c3)c2cc1OC	6.67 µM
Cc1cccc(NC(=O)c2cc(-c3cc(C)cc(C)c3O)n[nH]2)c1	4.2 µM
COc1ccc(-c2cc(-c3nc4ccccn4c3NCc3ccccc3)ccc2OC)cc1	1.96 µM
CC(=O)c1ccc(-c2cc([C@H]3[C@H]4C=CC[C@@H](C)[C@@H]4C(=O)N3Cc3ccccc3)ccc2F)cc1	6.87 µM
O=C(/C(N=Nc1cccc(C(F)(F)F)c1)=C(/O)c1cccs1)C(F)(F)F	2.17 µM

Compound	AC50
CCc1ccc(-c2cc3c(=O)n(CC(=O)NCCN4CCCCC4C)nc(C)n3n2)cc1 (stereo not given)	5.23 µM
O=C(Nc1ccc(O)cc1)c1ccc(NC(=O)c2cccs2)cc1	10 µM
C/C(=C\c1ccc(C(=O)O)cc1)c1ccc2c(c1)C(C)(C)CCC2(C)C	3.7 µM
O=C1C2=C(NC(=S)NC2c2ccc(Cl)cc2)NC(c2ccc(Cl)cc2)N1c1ccc(Cl)cc1 (stereo not given)	6.8 µM
O=C(N/N=C/c1cc(Br)ccc1O)C(=O)Nc1ccccc1OC(F)(F)C(F)F	3.6 µM
CCN1CCN(Cc2ccc(NC(=O)c3cc(NC(=O)c4cncc(-c5cccs5)c4)cc(OC)c3)cc2C(F)(F)F)CC1	3.52 µM
Fc1cccc(-c2cc3nc4c(c(NCc5ccco5)n3n2)CCCC4)c1	7.77 µM
Cc1cccc(-c2oc3ccccc3c2C#CCCO)c1	10.1 µM
NC(=O)CC(NC(=O)Cc1ccc(Br)cc1)c1ccc(NC2CCCCCC2)c([N+](=O)[O-])c1 (stereo not given)	4.88 µM
COc1cc(OC)c(C=O)c(OC(=O)N2CCOCC2)c1	> 19.5 µM (inactive)
CC(=O)Oc1ccc(-c2ccc(C(=O)Nc3cccc(S(=O)(=O)N4CCOCC4)c3)cc2)cc1	1.46 µM
S=c1[nH]nc(COc2ccccc2)n1/N=C/C(Cl)=C/c1ccccc1	3.55 µM
CCC1=NN2C(=N)/C(=C/c3c(C)nn(-c4ccccc4)c3Cl)C(=O)N=C2S1	> 19.5 µM (inactive)
Cc1ccc(S(=O)(=O)c2c(C)nn(C(C)(C)C)c2OC(=O)c2ccc(Br)o2)cc1	2.64 µM
CCCc1cc2c(=O)c(-c3ccc4c(c3)OCCO4)coc2cc1OC(=O)c1ccco1	10.9 µM
CCCCCc1cc(=O)oc2c(C(CCN3CCCC(C)C3)c3ccc(N(C)C)cc3)c(OC)cc(OC)c12 (stereo not given)	6.69 µM
CN1CCN(S(=O)(=O)c2cccc(C(=O)Nc3cc(C(F)(F)F)ccc3N3CCCCC3)c2)CC1	5.34 µM
O=C1C=C(c2ccc(Cl)c(C(F)(F)F)c2)C[C@@H](c2ccc3c(c2)OCO3)C1	6.37 µM
CC(C)C[C@H](CO)N(Cc1ccccc1)S(=O)(=O)N(Cc1ccccc1)[C@@H](CO)CC(C)C	3.49 µM
CCCC/C(C)=C/[C@@H](NP(=O)(c1ccccc1)c1ccccc1)c1ccccc1	6.68 µM
O=C(Nc1cc(N2CCOCC2)ncn1)NC1(C(F)(F)F)Oc2ccc(Cl)cc2O1 (stereo not given)	14.7 µM
COc1ccc2cc(C(=O)N/N=C/c3sc4ccccc4c3O)ccc2c1	1.8 µM
Cc1cc(C(=O)NNc2ccc(F)cc2F)no1	1.6 µM
Cc1ccc(NC(=O)Cn2c(O)c(N=NC(=O)c3cc4ccccc4cc3O)c3ccccc32)cc1	3.92 µM
O=C(Oc1ccc(-c2nc(-c3ccccn3)no2)cc1)c1ccccc1	1.63 µM
O=C(CSc1ncnc2nc[nH]c12)Nc1nnc(SCc2ccc(Cl)c(Cl)c2)s1	7.45 µM
COc1nc(N2CCCCCC2)nc(N2CCCCCC2)n1	7.43 µM

Compound	AC50
Cc1c(O)cc2c(c1O)C(=O)CC(c1ccccc1)O2 (stereo not given)	15.2 µM
O=c1cc(NS(=O)(=O)c2ccccc2)nc(SCc2ccc(Cl)cc2)[nH]1	5.9 µM
Cc1ccc(C(C[N+](=O)[O-])n2nc(C)cc2C)cc1 (stereo not given)	6.74 µM
Cc1ccc(NS(=O)(=O)c2ccc(Cl)c(NC(=S)NC(=O)C3CCCCC3)c2)cc1Cl	3.58 µM
CCC(C)n1c(-c2cccs2)nc2nc3ccccc3nc21 (stereo not given)	15.5 µM
CCOc1cc(CNCCO)cc(Br)c1OCc1ccc(Cl)cc1Cl	6.68 µM
CCCCN(CC)S(=O)(=O)c1ccc(C(=O)N(CCCN(C)C)c2nc3cc(C)cc(C)c3s2)cc1	7.21 µM
Cc1ccc(NNC(=O)c2cccs2)cc1Cl	2.19 µM
Cc1cccc2c1NC(=O)/C2=C\C(=O)c1cccs1	6.66 µM
CCCCn1c(-c2cccc(C)c2)nc2cc3[nH]c(=O)c(C(C)C)nc3cc21	4.64 µM
CC1=C(CO)C(=O)OC([C@@H](C)C2CC[C@H]3C4C[C@H]5O[C@]56[C@@H](O)C=CC(=O)[C@]6(C)C4CC[C@]23C)C1 (stereo not given in full)	1.62 µM
CCN(CC)c1nc(SCCOC(=O)Nc2ccccc2)nc(N(CC)CC)n1	4.58 µM
CCCCCCSc1cc(-c2nc3ccc(C)cn3c2NCCCC)ccc1OC	6.6 µM
O=C(c1cccc(S(=O)(=O)N2CCc3ccccc3C2)c1)N1CCN(c2ccc(O)cc2)CC1	2.9 µM
CN(Cc1ccco1)c1ncnc2ccc(-c3ccc4c(ccn4C)c3)cc12	3.01 µM
COc1ccccc1C(CCNCc1ccc(N(C)C)cc1)c1ccc(OC(C)C)cc1 (stereo not given)	3.58 µM
O=C(NC(=S)Nc1ccc(N2CCCCC2)c(Cl)c1)c1ccc2c(c1)OCCO2	3.58 µM
O=C(COCc1cc(-c2ccc3c(c2)OCO3)on1)N1CCN(c2cccc(C(F)(F)F)c2)CC1	2.69 µM
N#C/C(=C/c1cn(-c2ccccc2)nc1-c1cccc(OCc2ccc(F)cc2)c1)C(=O)NCCCn1ccnc1	3.4 µM
Cn1cnc(Sc2ncnc3nc[nH]c23)c1[N+](=O)[O-]	3.26 µM
CC(C)COc1ccc(-c2nn(-c3ccccc3)cc2/C=C2/SC(=S)N(CC(=O)O)C2=O)cc1	4.51 µM
CN1C(=O)/C(=C/c2cccc(Cl)c2)Sc2ccc(C(=O)NCc3cccnc3)cc21	5.15 µM
O=C(NCc1ccco1)c1ccc2c(c1)N(Cc1ccccc1)CCS2	> 19.5 µM (inactive)
Brc1ccc2[nH]c3c(N4CCc5ccccc5C4)ncnc3c2c1	17.3 µM
Cc1ccc(C)c(-c2csc(N)c2C(=O)OC(C)C)c1	8.52 µM
CCOC(=O)C1=C(C)NC(C)=C(C(=O)OCC)C1c1ccccc1/C=C/C(=O)OC(C)(C)C	4.67 µM
S=c1[nH]nc(-c2ccccc2)n1/N=C/c1ccc(-c2ccccc2Cl)o1	5.93 µM

Compound	AC50
COc1cc(/C=C/c2noc(-c3ccccc3O)n2)ccc1OC(C)=O	> 19.5 µM (inactive)
CC1CCCCC1NC(=O)/C(C#N)=C/c1ccccc1F (stereo not given)	7.72 µM
COc1ccc(-c2csc(NC(=S)NC(=O)/C=C/c3ccco3)n2)cc1OC	3.72 µM
C=C(C)C1Cc2c(C)nn(-c3cccc4ccccc34)c2C1 (stereo not given)	7.55 µM
Cc1cc(C)cc(NC(=O)CCc2nc3sc4c(c3c(=O)[nH]2)CCCC4)c1	5.26 µM
Cc1ccccc1-c1ccc(CN2CCN(C)C(CCO)C2)cc1 (stereo not given)	5.43 µM
CCc1ccc(NC(=O)C(CC)Sc2nc3cc4c(cc3c(=O)n2Cc2ccco2)OCO4)cc1 (stereo not given)	13.1 µM
O=C(NC(=S)Nc1cccc(Cl)c1N1CCCCC1)c1cccs1	6.92 µM
Cc1cccc(C(=O)NNC2=C(C(=O)C(F)(F)F)CCC2)c1O	3.91 µM
O=C(CSc1nc2nc(-c3cccs3)cc(C(F)(F)F)c2c(=O)[nH]1)Nc1c(F)c(F)c(F)c(F)c1F	3.43 µM
COc1ccc(CCCC(=O)N/N=C/c2cccc(OC)c2O)cc1C	3.13 µM
CCN(CC)CCOc1ccc(/C(=C(\Cl)c2ccccc2)c2ccccc2)cc1	1.55 µM
CCN1CCN(C(=O)c2ccc(CSc3ccc(C)cc3)cc2)CC1	0.22 µM
CCC(=O)NNc1ccc(Br)cc1	6.69 µM
Cc1ccc(NNC(=O)c2ccno2)cc1Cl	4 µM
O=C(/C(=C/O)N=Nc1ccc(Cl)cc1)c1ccncc1	6.53 µM
CCCCn1c(C2CCCCC2)nc2cc3[nH]c(=O)c(C(C)C)nc3cc21	1.52 µM
O=C1NC(c2ccc(-c3ccccc3[N+](=O)[O-])o2)C(C(=O)c2ccc(Cl)cc2)C(O)(C(F)(F)F)N1 (stereo not given)	13.8 µM
Cc1cc(C)nc(NC(=O)/C=C/c2ccc3c(c2)OCO3)c1	2.8 µM
CC(=O)Nc1ccc(N=Cc2c(O)c(C(=O)Nc3ccccc3)cc3ccccc23)cc1	4.21 µM
Cc1ccc(C)c(NC(=O)c2cc(-c3ccccc3)nn2-c2ccccc2)c1	6.27 µM
Oc1nc(Nc2cccc(Cl)c2)sc1/C=C1\C=Nc2ccccc21	3.78 µM
O=C(Nc1ccc(NC(=S)NC(=O)c2ccccc2Cl)cc1)c1cccc(Cl)c1	17.8 µM
CCc1ccccc1Nc1nn2c(=O)c3ccc(C(=O)NCc4ccccn4)cc3nc2s1	< 0.16 µM
